Values joined by “and” are separate entries in the source; they are usually repeats but may differ in a detail not shown here. Equal entries are not always repeated. Where a SMILES comes first, the peptide text is derived from it. [ ]: non-standard residue; d: D form. Hyp = O=C(O)[C@@H]1C[C@@H](O)CN1
Legend:
IL-8 = assay: Example 9 Luminex, LPS hPBMCs: IL-8; type: cell-based, human
Method: (§1) Treatment Human PBMCs were pretreated with YY-101, YDE-011 and YDE-043 or reference compound; Xiidra® at various concentration (ranging from 1 nM to 100 uM) for 2 h before stimulation. An equal volume of 0.5% DMSO was used as a vehicle control. Then, the cells were treated with LPS at 5 ug/ml. The supernatants from treated cells were harvested at 24 h and placed in a 96 well for Luminex cytokine & chemokine profiling using a Luminex 200 multiplex assay (Luminex; R&D system, USA).
(§2) The main study arm with triplicate wells per group in a 24-well plate: • 1. Blank • 2. PBMC: 0.5% DMSO • 3. PBMC+LPS (5 ug/ml) • 4. PBMC+YY-101 100 uM • 5. PBMC+YY-101 10 uM • 6. PBMC+YY-101 1 uM • 7. PBMC+YY-101 0.1 uM • 8. PBMC+YY-101 0.01 uM • 9. PBMC+LPS (5 ug/ml)+Xiidra®100 uM • 10. PBMC+LPS (5 ug/ml)+Xiidra® 10 uM • 11. PBMC+LPS (5 ug/ml)+Xiidra® 1 uM • 12. PBMC+LPS (5 ug/ml)+Xiidra®0.1 uM • 13. PBMC+LPS (5 ug/ml)+Xiidra®0.01 uM • 14. PBMC+LPS (5 ug/ml)+Xiidra®0.001 uM • 15. PBMC+LPS (5 ug/ml)+YY-101 100 uM • 16. PBMC+LPS (5 ug/ml)+YY-101 10 uM • 17. PBMC+LPS (5 ug/ml)+YY-101 1 uM • 18. PBMC+LPS (5 ug/ml)+YY-101 0.1 uM • 19. PBMC+LPS (5 ug/ml)+YY-101 0.01 uM • 20. PBMC+LPS (5 ug/ml)+YY-101 0.001 uM • 21. PBMC+LPS (5 ug/ml)+YDE-011 100 uM • 22. PBMC+LPS (5 ug/ml)+YDE-011 10 uM • 23. PBMC+LPS (5 ug/ml)+YDE-011 1 uM • 24. PBMC+LPS (5 ug/ml)+YDE-011 0.1 uM • 25. PBMC+LPS (5 ug/ml)+YDE-011 0.01 uM • 26. PBMC+LPS (5 ug/ml)+YDE-011 0.001 uM • 27. PBMC+LPS (5 ug/ml)+YDE-043 100 uM • 28. PBMC+LPS (5 ug/ml)+YDE-043 10 uM • 29. PBMC+LPS (5 ug/ml)+YDE-043 1 uM • 30. PBMC+LPS (5 ug/ml)+YDE-043 0.1 uM • 31. PBMC+LPS (5 ug/ml)+YDE-043 0.01 uM • 32. PBMC+LPS (5 ug/ml)+YDE-043 0.001 uM
(§3) Multiplex assay was used to measure 30 cytokines and chemokines. The 1:2, 1:10 and 1:200 diluted cell supernatant and serial dilution of the standard were dispensed into a 96 well plate at 50 ul/well. Then, the pre-mixed cocktail of antibody-coated magnetic beads was dispensed at 50 ul/well and incubated at room temperature for 2 h in a horizontal orbital microplate shaker at 800±500 rpm. The beads were washed using a magnetic device to prevent loss. The biotin-antibody was dispensed in 50 ul of each well and incubated at room temperature for 1 h in a shaker at 800±500 rpm. After washing, streptavidin-PE was added at 50 ul/well and incubated at room temperature for 30 min in a shaker under the same conditions. Finally, after washing, wash buffer (100 ul/well) was added to the plate and incubated in a shaker for 2 min. The Luminex™ 200 setting were set according to the manufacturer's protocol. The data was calculated with a standard five-parameter logistic nonlinear regression analysis of the data (xPonent software 4.2, USA). The levels of cytokine/chemokine are normalized to the live cell counts (1×10^5 cells/mL) and presented as concentrations per mL (pg/mL or ng/mL).

CCL3/MIP-1 alpha = assay: Example 9 Luminex, LPS hPBMCs: CCL3/MIP-1 alpha; type: cell-based, human
Method: as §1, §2, §3

[1] = PBMC + LPS(5 ug/ml) + test article 0.001 uM, Mean
[2] = PBMC + LPS(5 ug/ml) + test article 0.001 uM, single replicates (1st, 2nd, 3rd)
[3] = PBMC + LPS(5 ug/ml) + test article 0.01 uM, Mean
[4] = PBMC + LPS(5 ug/ml) + test article 0.01 uM, single replicates (1st, 2nd, 3rd)
[5] = PBMC + LPS(5 ug/ml) + test article 0.1 uM, Mean
[6] = PBMC + LPS(5 ug/ml) + test article 0.1 uM, single replicates (1st, 2nd, 3rd)
[7] = PBMC + LPS(5 ug/ml) + test article 1 uM, Mean
[8] = PBMC + LPS(5 ug/ml) + test article 1 uM, single replicates (1st, 2nd, 3rd)
[9] = PBMC + LPS(5 ug/ml) + test article 10 uM, Mean
[10] = PBMC + LPS(5 ug/ml) + test article 10 uM, single replicates (1st, 2nd, 3rd)
[11] = PBMC + LPS(5 ug/ml) + test article 100 uM, Mean
[12] = PBMC + LPS(5 ug/ml) + test article 100 uM, single replicates (1st, 2nd, 3rd)
[13] = PBMC + LPS(5 ug/ml) + test article 0.001 uM, individual replicates
[14] = PBMC + LPS(5 ug/ml) + test article 0.01 uM, individual replicates
[15] = PBMC + LPS(5 ug/ml) + test article 0.1 uM, individual replicates
[16] = PBMC + LPS(5 ug/ml) + test article 1 uM, individual replicates
[17] = PBMC + LPS(5 ug/ml) + test article 10 uM, individual replicates
[18] = PBMC + LPS(5 ug/ml) + test article 100 uM, individual replicates

`CC(C)C[C@H](NC(=O)[C@H](CCC(N)=O)NC(=O)CNC(=O)[C@@H]1C[C@@H](O)CN1)C(=O)NCC(=O)O` [YDE-043] (H-[Hyp]GQLG-OH; N-terminus and C-terminus assumed) was tested, and the Concentration (IL-8; [1]) was 27612.8 pg/mL, the conc/live cell (IL-8; [1]) was 5610.5 pg/10^5 and the Concentration (IL-8; [2]) was 25319.8 pg/mL and 28134.2 pg/mL and 29384.5 pg/mL. The conc/live cell (IL-8; [2]) was 5754.5 pg/10^5 and 4689.0 pg/10^5 and 6387.9 pg/10^5, the Concentration (IL-8; [3]) was 27805.6 pg/mL and the conc/live cell (IL-8; [3]) was 5331.3 pg/10^5. For the same compound, the Concentration (IL-8; [4]) was 28010.8 pg/mL and 27056.0 pg/mL and 28350.1 pg/mL, the conc/live cell (IL-8; [4]) was 6224.6 pg/10^5 and 4099.4 pg/10^5 and 5670.0 pg/10^5 and the Concentration (IL-8; [5]) was 26729.6 pg/mL. For the same compound, the conc/live cell (IL-8; [5]) was 4969.6 pg/10^5, the Concentration (IL-8; [6]) was 27502.4 pg/mL and 24737.2 pg/mL and 27949.2 pg/mL and the conc/live cell (IL-8; [6]) was 5500.5 pg/10^5 and 4417.4 pg/10^5 and 4990.9 pg/10^5. For the same compound, the Concentration (IL-8; [7]) was 26441.2 pg/mL, the conc/live cell (IL-8; [7]) was 4990.4 pg/10^5 and the Concentration (IL-8; [8]) was 27517.8 pg/mL and 23008.1 pg/mL and 28797.5 pg/mL. The conc/live cell (IL-8; [8]) was 4744.4 pg/10^5 and 4793.4 pg/10^5 and 5433.5 pg/10^5, the Concentration (IL-8; [9]) was 29354.3 pg/mL and the conc/live cell (IL-8; [9]) was 5450.9 pg/10^5. The Concentration (IL-8; [10]) was 28998.3 pg/mL and 34618.6 pg/mL and 24446.1 pg/mL, the conc/live cell (IL-8; [10]) was 5576.6 pg/10^5 and 6410.8 pg/10^5 and 4365.4 pg/10^5 and the Concentration (IL-8; [11]) was 25505.9 pg/mL. For the same compound, the conc/live cell (IL-8; [11]) was 4053.3 pg/10^5, the Concentration (IL-8; [12]) was 26994.4 pg/mL and 24017.4 pg/mL and the conc/live cell (IL-8; [12]) was 4353.9 pg/10^5 and 3752.7 pg/10^5. For the same compound, the Concentration (CCL3/MIP-1 alpha; [1]) was 7935.0 pg/mL, the conc/live cell (CCL3/MIP-1 alpha; [1]) was 1611.4 pg/10^5 and the Concentration (CCL3/MIP-1 alpha; [13]) was 7637.9 pg/mL and 8204.6 pg/mL and 7962.5 pg/mL. The conc/live cell (CCL3/MIP-1 alpha; [13]) was 1735.9 pg/10^5 and 1367.4 pg/10^5 and 1731.0 pg/10^5, the Concentration (CCL3/MIP-1 alpha; [3]) was 7883.4 pg/mL and the conc/live cell (CCL3/MIP-1 alpha; [3]) was 1505.4 pg/10^5. For the same compound, the Concentration (CCL3/MIP-1 alpha; [14]) was 7796.2 pg/mL and 7985.9 pg/mL and 7868.0 pg/mL, the conc/live cell (CCL3/MIP-1 alpha; [14]) was 1732.5 pg/10^5 and 1210.0 pg/10^5 and 1573.6 pg/10^5 and the Concentration (CCL3/MIP-1 alpha; [5]) was 7645.0 pg/mL. For the same compound, the conc/live cell (CCL3/MIP-1 alpha; [5]) was 1418.9 pg/10^5, the Concentration (CCL3/MIP-1 alpha; [15]) was 7513.4 pg/mL and 7625.5 pg/mL and 7796.2 pg/mL and the conc/live cell (CCL3/MIP-1 alpha; [15]) was 1502.7 pg/10^5 and 1361.7 pg/10^5 and 1392.2 pg/10^5. The Concentration (CCL3/MIP-1 alpha; [7]) was 7636.6 pg/mL, the conc/live cell (CCL3/MIP-1 alpha; [7]) was 1442.9 pg/10^5 and the Concentration (CCL3/MIP-1 alpha; [16]) was 7962.5 pg/mL and 6891.7 pg/mL and 8055.7 pg/mL. For the same compound, the conc/live cell (CCL3/MIP-1 alpha; [16]) was 1372.8 pg/10^5 and 1435.8 pg/10^5 and 1520.0 pg/10^5, the Concentration (CCL3/MIP-1 alpha; [9]) was 7606.3 pg/mL and the conc/live cell (CCL3/MIP-1 alpha; [9]) was 1409.0 pg/10^5. The Concentration (CCL3/MIP-1 alpha; [17]) was 7500.8 pg/mL and 7450.2 pg/mL and 7868.0 pg/mL, the conc/live cell (CCL3/MIP-1 alpha; [17]) was 1442.5 pg/10^5 and 1379.7 pg/10^5 and 1405.0 pg/10^5 and the Concentration (CCL3/MIP-1 alpha; [11]) was 7769.2 pg/mL. For the same compound, the conc/live cell (CCL3/MIP-1 alpha; [11]) was 1234.0 pg/10^5, the Concentration (CCL3/MIP-1 alpha; [18]) was 7962.5 pg/mL and 7575.9 pg/mL and the conc/live cell (CCL3/MIP-1 alpha; [18]) was 1284.3 pg/10^5 and 1183.7 pg/10^5.
